In one assay the test system is HEK293. Kind of assay: Cellular IC50 HEK293. The assay is classed as cell-based. The source says: (§1) XLfit (idbs) was used to determine the IC50-values in inhibition experiments. The following formula was chosen to fit the data points (Langmuir Binding Isotherm): fit=((A+(B*x))+(((C−B)*(1−exp((−1*D)*x)))/D)), res=(y−fit).
Another assay deals with TNKS2 (Homo sapiens (Human), UniProt Q9H2K2). Kind of assay: Biochemical IC50 TNKS2.
Excerpt: as §1

Setting [1] is: Homo sapiens, HEK293; read-out: Cellular IC50 HEK 293.
[2] abbreviates: Homo sapiens, HEK293; read-out: Cellular IC50 HEK293.
Where [3] appears, read: Homo sapiens, HEK293, read-out: Cellular IC50 HEK 293.
The mark [4] stands for this setting: Homo sapiens, HEK293, read-out: Cellular IC50 HEK293.
[5] abbreviates: read-out: Biochemical IC50 TNKS2.

pIC50: −log10 of the molar value. Where two headings read alike, the source gives them in different places.

Chain of TNKS2 (Q9H2K2 whole entry): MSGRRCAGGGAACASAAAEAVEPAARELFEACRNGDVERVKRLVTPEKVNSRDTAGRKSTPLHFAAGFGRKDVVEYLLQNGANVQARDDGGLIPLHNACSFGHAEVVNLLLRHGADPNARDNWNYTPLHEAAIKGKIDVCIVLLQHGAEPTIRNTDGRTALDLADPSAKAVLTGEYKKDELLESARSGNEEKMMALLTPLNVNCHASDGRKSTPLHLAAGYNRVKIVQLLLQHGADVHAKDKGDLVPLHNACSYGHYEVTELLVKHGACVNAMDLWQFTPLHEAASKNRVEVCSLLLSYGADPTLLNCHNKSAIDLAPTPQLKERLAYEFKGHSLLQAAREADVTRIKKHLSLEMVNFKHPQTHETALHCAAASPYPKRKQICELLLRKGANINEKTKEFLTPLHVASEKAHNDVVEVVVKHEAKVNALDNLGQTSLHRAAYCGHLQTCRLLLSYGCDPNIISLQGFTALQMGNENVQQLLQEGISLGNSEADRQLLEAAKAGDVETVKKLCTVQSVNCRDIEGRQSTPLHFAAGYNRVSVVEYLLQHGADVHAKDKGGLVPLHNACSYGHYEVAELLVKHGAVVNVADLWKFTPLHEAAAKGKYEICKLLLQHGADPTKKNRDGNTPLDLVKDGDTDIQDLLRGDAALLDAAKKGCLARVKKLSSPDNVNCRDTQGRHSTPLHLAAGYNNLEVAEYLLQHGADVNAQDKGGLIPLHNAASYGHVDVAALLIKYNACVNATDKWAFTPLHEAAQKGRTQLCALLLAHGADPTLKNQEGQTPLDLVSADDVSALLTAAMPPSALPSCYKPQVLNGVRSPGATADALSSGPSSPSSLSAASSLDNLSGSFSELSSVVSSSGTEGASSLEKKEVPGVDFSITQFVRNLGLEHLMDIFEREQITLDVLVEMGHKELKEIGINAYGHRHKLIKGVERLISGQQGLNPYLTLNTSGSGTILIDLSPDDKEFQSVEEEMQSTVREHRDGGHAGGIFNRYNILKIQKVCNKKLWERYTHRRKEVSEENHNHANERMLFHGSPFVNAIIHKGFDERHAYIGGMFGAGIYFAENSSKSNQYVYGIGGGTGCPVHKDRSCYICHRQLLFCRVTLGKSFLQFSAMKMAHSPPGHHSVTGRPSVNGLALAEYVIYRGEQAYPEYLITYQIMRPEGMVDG

With `CCOc1ccc(-c2nnc([C@H]3C[C@H](NC(=O)c4cccc5[nH]c(=O)ccc45)C3)n2-c2ccccc2F)nc1` [Example 13, N-(trans-3-(5-(5-ethoxypyridin-2-yl)-4-(2-fluorophenyl)-4H-1,2,4-triazol-3-yl)cyclobutyl)-2-oxo-1,2-dihydroquinoline-5-carboxamide], the pIC50 with HEK293 (setting [1]) and in the assay on HEK293 (setting [2]) was under 5.00 each time.

With `CCOc1ccc(-c2nnc([C@H]3C[C@H](NC(=O)c4cc[n+]([O-])c5cc(O)cnc45)C3)n2-c2ccccc2F)nc1` [Example 27, 4-((trans-3-(5-(5-ethoxypyridin-2-yl)-4-(2-fluorophenyl)-4H-1,2,4-triazol-3-yl)cyclobutyl)carbamoyl)-7-hydroxy-1,5-naphthyridine 1-oxide], the results for the pIC50 in the assay on HEK293 (setting [3]), in the assay with HEK293 (setting [4]) and against TNKS2 were 7.66, 7.66 and 8.77, respectively.

Take `CCOc1ccc(-c2nnc([C@H]3C[C@H](NC(=O)c4cc[n+]([O-])c5cccnc45)C3)n2-c2ccccc2F)nc1` [Example 26, 4-((trans-3-(5-(5-ethoxypyridin-2-yl)-4-(2-fluorophenyl)-4H-1,2,4-triazol-3-yl)cyclobutyl)carbamoyl)-1,5-naphthyridine 1-oxide]: the results for the pIC50 in the assay on HEK293 (setting [1]), with HEK293 (setting [2]) and at TNKS2 (setting [5]) were 8.85, 8.85 and 8.59, respectively.

In the case of `CCOc1ccc(-c2nnc([C@H]3C[C@H](NC(=O)c4cccc5c(O)ccnc45)C3)n2-c2ccccc2F)nc1` [Example 14, N-(trans-3-(5-(5-ethoxypyridin-2-yl)-4-(2-fluorophenyl)-4H-1,2,4-triazol-3-yl)cyclobutyl)-4-hydroxyquinoline-8-carboxamide], the pIC50 in the assay with HEK293 (setting [1]) and with HEK293 (setting [2]) was 8.07 each time.

Turning to `CCOc1ccc(-c2nnc([C@H]3C[C@H](NC(=O)c4cccc5c(N(C)C)ccnc45)C3)n2-c2ccccc2F)nc1` [Example 22], the values for the pIC50 in the assay with HEK293 (setting [1]), with HEK293 (setting [2]) and at TNKS2 (setting [5]) were 7.82, 7.82 and 8.68, respectively.

Consider `CCOc1ccc(-c2nnc([C@H]3C[C@H](NC(=O)c4cccc(C(N)=O)n4)C3)n2-c2ccccc2F)nc1` [Example 7, N-(trans-3-(5-(5-ethoxypyridin-2-yl)-4-(2-fluorophenyl)-4H-1,2,4-triazol-3-yl)cyclobutyl)pyridine-2,6-dicarboxamide], for which the pIC50 in the assay with HEK293 (setting [1]) and with HEK293 (setting [2]) was 7.15 in each case.

As to `CCOc1ccc(-c2nnc([C@H]3C[C@H](NC(=O)c4cc[n+]([O-])c5cc(F)cnc45)C3)n2-c2ccccc2F)nc1` [Example 29, 4-((trans-3-(5-(5-ethoxypyridin-2-yl)-4-(2-fluorophenyl)-4H-1,2,4-triazol-3-yl)cyclobutyl)carbamoyl)-7-fluoro-1,5-naphthyridine 1-oxide], the pIC50 in the assay with HEK293 (setting [1]) and with HEK293 (setting [2]) was 8.55 each time.

Turning to `CCOc1ccc(-c2nnc([C@H]3C[C@H](NC(=O)c4cccc(S(N)(=O)=O)c4)C3)n2-c2ccccc2F)nc1` [Example 16, N-(trans-3-(5-(5-ethoxypyridin-2-yl)-4-(2-fluorophenyl)-4H-1,2,4-triazol-3-yl)cyclobutyl)-3-sulfamoylbenzamide], the pIC50 with HEK293 (setting [1]) is 5.64; in the assay with HEK293 (setting [2]), 5.65.

Regarding `CCOc1ccc(-c2nnc([C@H]3C[C@H](NC(=O)c4cc[n+]([O-])cc4)C3)n2-c2ccccc2F)nc1` [Example 19, 4-((trans-3-(5-(5-ethoxypyridin-2-yl)-4-(2-fluorophenyl)-4H-1,2,4-triazol-3-yl)cyclobutyl)carbamoyl)pyridine 1-oxide], the pIC50 in the assay with HEK293 (setting [1]) and in the assay on HEK293 (setting [2]) was 7.47 each time.

`CCOc1ccc(-c2nnc([C@H]3C[C@H](NC(=O)c4cccc5c4nc(C)c(C)[n+]5[O-])C3)n2-c2ccccc2F)nc1` [Example 24, 5-((trans-3-(5-(5-ethoxypyridin-2-yl)-4-(2-fluorophenyl)-4H-1,2,4-triazol-3-yl)cyclobutyl)carbamoyl)-2,3-dimethylquinoxaline 1-oxide]: the pIC50 in the assay on HEK293 (setting [3]) and in the assay with HEK293 (setting [4]) was 8.43 in each case.

On to `CCOc1ccc(-c2nnc([C@H]3C[C@H](NC(=O)c4cccc(C(=O)N(C)C)n4)C3)n2-c2ccccc2F)nc1` [Example 9], for which the pIC50 is 6.72 in the assay on HEK293 (setting [1]) and 6.73 with HEK293 (setting [2]).

Regarding `CCOc1ccc(-c2nnc([C@H]3C[C@H](NC(=O)c4cccc(C(=O)NC)n4)C3)n2-c2ccccc2F)nc1` [Example 8, N2-(trans-3-(5-(5-ethoxypyridin-2-yl)-4-((S)-2-fluorophenyl)-4H-1,2,4-triazol-3-yl)cyclobutyl)-N6-methylpyridine-2,6-dicarboxamide], the pIC50 in the assay on HEK293 (setting [1]) and in the assay on HEK293 (setting [2]) was 7.68 each time.

Take `CCOc1ccc(-c2nnc([C@H]3C[C@H](NC(=O)c4cccc5cc(O)cnc45)C3)n2-c2ccccc2F)nc1` [Example 23, N-(trans-3-(5-(5-ethoxypyridin-2-yl)-4-(2-fluorophenyl)-4H-1,2,4-triazol-3-yl)cyclobutyl)-3-hydroxyquinoline-8-carboxamide]: the pIC50 was 8.44 with HEK293 (setting [1]), 8.44 in the assay with HEK293 (setting [2]) and 8.89 at TNKS2 (setting [5]).

On to `CCOc1ccc(-c2nnc([C@H]3C[C@H](NC(=O)c4cccc5cc(O)ccc45)C3)n2-c2ccccc2F)nc1` [Example 12], for which the pIC50 with HEK293 (setting [1]) and with HEK293 (setting [2]) was under 5.00 each time.

For `CCOc1ccc(-c2nnc([C@H]3C[C@H](NC(=O)c4cc[n+]([O-])c5cc(OC)cnc45)C3)n2-c2ccccc2F)nc1` [Example 28, 4-((trans-3-(5-(5-ethoxypyridin-2-yl)-4-(2-fluorophenyl)-4H-1,2,4-triazol-3-yl)cyclobutyl)carbamoyl)-7-methoxy-1,5-naphthyridine 1-oxide], the pIC50 in the assay on HEK293 (setting [3]) was 8.92; in the assay on HEK293 (setting [4]), 8.92; against TNKS2 it was 8.46.

For the compound `CCOc1ccc(-c2nnc([C@H]3C[C@H](NC(=O)c4ccc[n+]([O-])c4)C3)n2-c2ccccc2F)nc1` [Example 18, 3-((trans-3-(5-(5-ethoxypyridin-2-yl)-4-(2-fluorophenyl)-4H-1,2,4-triazol-3-yl)cyclobutyl)carbamoyl)pyridine 1-oxide], the negative logarithm of the IC50 (pIC50) in the assay with HEK293 (setting [1]) and with HEK293 (setting [2]) was under 5.00 throughout.

As for `CCOc1ccc(-c2nnc([C@H]3C[C@H](NC(=O)c4cccc(O)c4)C3)n2-c2ccccc2F)nc1` [Example 15, N-(trans-3-(5-(5-ethoxypyridin-2-yl)-4-(2-fluorophenyl)-4H-1,2,4-triazol-3-yl)cyclobutyl)-3-hydroxybenzamide], the pIC50 with HEK293 (setting [1]) and with HEK293 (setting [2]) was 6.89 in each case.

For `CCOc1ccc(-c2nnc([C@H]3C[C@H](NC(=O)c4cccc(C(=O)N5CCC5)n4)C3)n2-c2ccccc2F)nc1` [Example 10, 6-(azetidine-1-carbonyl)-N-(trans-3-(5-(5-ethoxypyridin-2-yl)-4-((S)-2-fluorophenyl)-4H-1,2,4-triazol-3-yl)cyclobutyl)picolinamide], the pIC50 in the assay on HEK293 (setting [3]) and with HEK293 (setting [4]) was 7.39 throughout.

For `CCOc1ccc(-c2nnc([C@H]3C[C@H](NC(=O)c4cccc(=O)[nH]4)C3)n2-c2ccccc2F)nc1` [Example 11, N-(trans-3-(5-(5-ethoxypyridin-2-yl)-4-(2-fluorophenyl)-4H-1,2,4-triazol-3-yl)cyclobutyl)-6-oxo-1,6-dihydropyridine-2-carboxamide], the negative logarithm of the IC50 (pIC50) in the assay with HEK293 (setting [1]) was 5.55; with HEK293 (setting [2]), 5.56.

The pIC50 is −log10 of the IC50, conventionally taken in molar units.

Values taken from patent US20230322721A1 (OSLO UNIVERSITETSSYKEHUS HF, priority 2020, published 2023).
